Measured values from patent US12435044B2, “Pyridazinone herbicides and pyridazinone intermediates used to prepare a herbicide” (FMC Corporation, priority 2018, dated 2025).

Legend:
Format in all cases: in vivo
[1] = tested on: foxtail, giant (Setaria faberii); experiment: Test A pre-/postemergence greenhouse test
Outline: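 Seeds were planted in a loam soil and sand blend and sprayed preemergence on the soil, while pot-grown plants 2 to 10 cm tall at the one- to two-leaf stage were treated postemergence. Plants then stayed in the greenhouse about 10 d before visual scoring of injury, 0–100.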

[2] = tested on: blackgrass (Alopecurus myosuroides); experiment: Test A postemergence greenhouse test
Excerpt: (§1) Seeds of plant species selected from barnyardgrass (Echinochloa crus-galli), kochia (Kochia scoparia), ragweed (common ragweed, Ambrosia elatior), ryegrass, Italian (Lolium multiflorum), foxtail, giant (Setaria faberii), foxtail, green (Setaria viridis) and pigweed (Amaranthus retroflexus) were planted into a blend of loam soil and sand and treated preemergence with a directed soil spray using test chemicals formulated in a non-phytotoxic solvent mixture which included a surfactant.
(§2) At the same time, plants selected from these weed species and also wheat (Triticum aestivum), corn (Zea mays), blackgrass (Alopecurus myosuroides) and galium (catchweed bedstraw, Galium aparine) were planted in pots containing the same blend of loam soil and sand and treated with postemergence applications of test chemicals formulated in the same manner. Plants ranged in height from 2 to 10 cm and were in the one- to two-leaf stage for the postemergence treatment. Treated plants and untreated controls were maintained in a greenhouse for approximately 10 d, after which time all treated plants were compared to untreated controls and visually evaluated for injury. Plant response ratings, summarized in Table A, are based on a 0 to 100 scale where 0 is no effect and 100 is complete control. A dash (-) response means no test result.

corn (Zea mays) = experiment: Test A postemergence greenhouse test
Excerpt: as §1, §2

[3] = tested on: galium (catchweed bedstraw, Galium aparine); experiment: Test A postemergence greenhouse test
Excerpt: as §1, §2

[4] = tested on: wheat (Triticum aestivum); experiment: Test A postemergence greenhouse test
Excerpt: as §1, §2

[5] = tested on: barnyardgrass (Echinochloa crus-galli); experiment: Test C pre-/postemergence greenhouse test; details: scale 0 to 100
Outline: (§3)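 Visual 0–100 rating (0 = no effect, 100 = complete control) against controls, 13 to 21 d after treatment in greenhouse. Preemergence: seeds in silt loam soil. Postemergence: plants at 1- to 4-leaf stage (2 to 18 cm) in peat-based medium; compounds in surfactant-containing solvent mixture.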

[6] = tested on: galium (catchweed bedstraw, Galium aparine); experiment: Test C pre-/postemergence greenhouse test; details: scale 0 to 100
Outline: as §3

[7] = tested on: nutsedge, yellow (Cyperus esculentus); experiment: Test C pre-/postemergence greenhouse test; details: scale 0 to 100
Outline: as §3

[8] = tested on: poinsettia, wild (Euphorbia heterophylla); experiment: Test C pre-/postemergence greenhouse test; details: scale 0 to 100
Outline: as §3

[9] = tested on: velvetleaf (Abutilon theophrasti); experiment: Test C pre-/postemergence greenhouse test; details: scale 0 to 100
Outline: as §3

[10] = tested on: Canada thistle (Cirsium arvense); experiment: Test C postemergence greenhouse test; details: scale 0 to 100
Outline: as §3

[11] = tested on: buckwheat, wild (Polygonum convolvulus); experiment: Test C postemergence greenhouse test; details: scale 0 to 100
Outline: as §3

[12] = tested on: field violet (Viola arvensis); experiment: Test C postemergence greenhouse test; details: scale 0 to 100
Outline: as §3

[13] = tested on: speedwell (bird's-eye speedwell, Veronica persica); experiment: Test C postemergence greenhouse test; details: scale 0 to 100
Outline: as §3

Which “Plant response rating (0 to 100 scale)” value ([1]; Postemergence, 31 g ai/ha) does the source give for Cc1cc(Cl)c2ccccc2c1-c1c(O)c(Cl)nn(C)c1=O [Cpd. No. 65] here?
Its value is 100.

What about the “Plant response rating (0 to 100 scale)” value ([1]; Postemergence, 125 g ai/ha) of the same compound?
The value was 100.

What about the “Plant response rating (0 to 100 scale)” value ([1]; Preemergence, 31 g ai/ha) of the same compound?
The value was 100.

What about the “Plant response rating (0 to 100 scale)” value ([1]; Preemergence, 125 g ai/ha) of the same compound?
Its value is 100.

What about the “Plant response rating (0 to 100 scale)” value ([2]; 31 g ai/ha) of the same compound?
Its value is 90.

And the “Plant response rating (0 to 100 scale)” value ([2]; 125 g ai/ha)?
Its value is 100.

What about the “Plant response rating (0 to 100 scale)” value (corn (Zea mays); 31 g ai/ha) of the same compound?
The value was 30.

What about the “Plant response rating (0 to 100 scale)” value (corn (Zea mays); 125 g ai/ha) of the same compound?
The value was 50.

What about the “Plant response rating (0 to 100 scale)” value ([3]; 31 g ai/ha) of the same compound?
The value was 100.

And the “Plant response rating (0 to 100 scale)” value ([3]; 125 g ai/ha)?
The value was 100.

And the “Plant response rating (0 to 100 scale)” value ([4]; 31 g ai/ha)?
The value was 80.

And the “Plant response rating (0 to 100 scale)” value ([4]; 125 g ai/ha)?
Its value is 90.

And the “Plant response rating, Barnyardgrass” value ([5]; Postemergence, 16 g ai/ha)?
Its value is 80.

What about the “Plant response rating, Barnyardgrass” value ([5]; Postemergence, 31 g ai/ha) of the same compound?
Its value is 85.

What about the “Plant response rating, Barnyardgrass” value ([5]; Postemergence, 62 g ai/ha) of the same compound?
Its value is 100.

What about the “Plant response rating, Barnyardgrass” value ([5]; Postemergence, 125 g ai/ha) of the same compound?
Its value is 100.

And the “Plant response rating, Barnyardgrass” value ([5]; Preemergence, 31 g ai/ha)?
The value was 20.

And the “Plant response rating, Barnyardgrass” value ([5]; Preemergence, 61 g ai/ha)?
The value was 10.

And the “Plant response rating, Barnyardgrass” value ([5]; Preemergence, 62 g ai/ha)?
Its value is 60.

What about the “Plant response rating, Barnyardgrass” value ([5]; Preemergence, 125 g ai/ha) of the same compound?
Its value is 75.

And the “Plant response rating, Galium” value ([6]; Postemergence, 16 g ai/ha)?
The value was 90.

What about the “Plant response rating, Galium” value ([6]; Postemergence, 31 g ai/ha) of the same compound?
The value was 90.

What about the “Plant response rating, Galium” value ([6]; Postemergence, 62 g ai/ha) of the same compound?
Its value is 95.

What about the “Plant response rating, Galium” value ([6]; Postemergence, 125 g ai/ha) of the same compound?
Its value is 98.

And the “Plant response rating, Galium” value ([6]; Preemergence, 31 g ai/ha)?
Its value is 85.

And the “Plant response rating, Galium” value ([6]; Preemergence, 61 g ai/ha)?
The value was 0.

And the “Plant response rating, Galium” value ([6]; Preemergence, 62 g ai/ha)?
Its value is 98.

What about the “Plant response rating, Galium” value ([6]; Preemergence, 125 g ai/ha) of the same compound?
Its value is 100.

What about the “Plant response rating, Nutsedge, Yellow” value ([7]; Postemergence, 16 g ai/ha) of the same compound?
The value was 50.

And the “Plant response rating, Nutsedge, Yellow” value ([7]; Postemergence, 31 g ai/ha)?
Its value is 75.

What about the “Plant response rating, Nutsedge, Yellow” value ([7]; Postemergence, 62 g ai/ha) of the same compound?
Its value is 65.

And the “Plant response rating, Nutsedge, Yellow” value ([7]; Postemergence, 125 g ai/ha)?
The value was 95.

What about the “Plant response rating, Nutsedge, Yellow” value ([7]; Preemergence, 31 g ai/ha) of the same compound?
The value was 75.

And the “Plant response rating, Nutsedge, Yellow” value ([7]; Preemergence, 61 g ai/ha)?
The value was 10.

What about the “Plant response rating, Nutsedge, Yellow” value ([7]; Preemergence, 62 g ai/ha) of the same compound?
The value was 75.

What about the “Plant response rating, Nutsedge, Yellow” value ([7]; Preemergence, 125 g ai/ha) of the same compound?
The value was 95.

And the “Plant response rating, Poinsettia, Wild” value ([8]; Postemergence, 16 g ai/ha)?
The value was 70.

What about the “Plant response rating, Poinsettia, Wild” value ([8]; Postemergence, 31 g ai/ha) of the same compound?
Its value is 95.

What about the “Plant response rating, Poinsettia, Wild” value ([8]; Postemergence, 62 g ai/ha) of the same compound?
The value was 80.

What about the “Plant response rating, Poinsettia, Wild” value ([8]; Postemergence, 125 g ai/ha) of the same compound?
Its value is 100.

And the “Plant response rating, Poinsettia, Wild” value ([8]; Preemergence, 31 g ai/ha)?
The value was 35.

What about the “Plant response rating, Poinsettia, Wild” value ([8]; Preemergence, 61 g ai/ha) of the same compound?
The value was 25.

What about the “Plant response rating, Poinsettia, Wild” value ([8]; Preemergence, 62 g ai/ha) of the same compound?
Its value is 70.

And the “Plant response rating, Poinsettia, Wild” value ([8]; Preemergence, 125 g ai/ha)?
Its value is 100.

What about the “Plant response rating, Velvetleaf” value ([9]; Postemergence, 16 g ai/ha) of the same compound?
The value was 40.

And the “Plant response rating, Velvetleaf” value ([9]; Postemergence, 31 g ai/ha)?
Its value is 85.

And the “Plant response rating, Velvetleaf” value ([9]; Postemergence, 62 g ai/ha)?
The value was 100.

And the “Plant response rating, Velvetleaf” value ([9]; Postemergence, 125 g ai/ha)?
The value was 100.

And the “Plant response rating, Velvetleaf” value ([9]; Preemergence, 31 g ai/ha)?
The value was 60.

What about the “Plant response rating, Velvetleaf” value ([9]; Preemergence, 61 g ai/ha) of the same compound?
The value was 40.

And the “Plant response rating, Velvetleaf” value ([9]; Preemergence, 62 g ai/ha)?
Its value is 75.

And the “Plant response rating, Velvetleaf” value ([9]; Preemergence, 125 g ai/ha)?
Its value is 100.

And the “Plant response rating, Canada Thistle” value ([10]; 16 g ai/ha)?
Its value is 80.

And the “Plant response rating, Canada Thistle” value ([10]; 31 g ai/ha)?
Its value is 90.

And the “Plant response rating, Canada Thistle” value ([10]; 62 g ai/ha)?
The value was 98.

What about the “Plant response rating, Canada Thistle” value ([10]; 125 g ai/ha) of the same compound?
Its value is 90.

What about the “Plant response rating, Buckwheat, Wild” value ([11]; 16 g ai/ha) of the same compound?
The value was 100.

And the “Plant response rating, Buckwheat, Wild” value ([11]; 31 g ai/ha)?
The value was 100.

And the “Plant response rating, Buckwheat, Wild” value ([11]; 62 g ai/ha)?
The value was 100.

And the “Plant response rating, Buckwheat, Wild” value ([11]; 125 g ai/ha)?
The value was 100.

And the “Plant response rating, Field Violet” value ([12]; 16 g ai/ha)?
Its value is 70.

What about the “Plant response rating, Field Violet” value ([12]; 31 g ai/ha) of the same compound?
Its value is 80.

And the “Plant response rating, Field Violet” value ([12]; 62 g ai/ha)?
Its value is 85.

And the “Plant response rating, Field Violet” value ([12]; 125 g ai/ha)?
Its value is 85.

And the “Plant response rating, Speedwell” value ([13]; 16 g ai/ha)?
The value was 55.

What about the “Plant response rating, Speedwell” value ([13]; 31 g ai/ha) of the same compound?
The value was 65.

And the “Plant response rating, Speedwell” value ([13]; 62 g ai/ha)?
The value was 75.

What about the “Plant response rating, Speedwell” value ([13]; 125 g ai/ha) of the same compound?
The value was 90.
